Experimental findings from patent US20250179049A1, “SALTS OF HETEROCYCLIC INHIBITORS OF MONOCARBOXYLATE TRANSPORTER 4 FOR THE TREATMENT OF DISEASE” (Vettore, LLC, priority 2022, published 2025) are described below.

pIC50: −log10 of the molar value. Structures can show the parent of a compound that is named as a salt. Where only a bound is given, the exact number is not on record here.

Series [1] relates to beagle dogs. Nature of the series: in vivo. Particulars: both, dog, 28 days. The method, then:
(§1) Compound 1 was administered to beagle dogs by oral gavage in a range finding study at doses of 30, 79, 240, or 790 mg/kg. […] Compound 1 was administered at doses of 10, 50, and 150 mg/kg/day in the pivotal repeat dose toxicity studies for 28 days.
(§2) Compound 1 tris salt was evaluated for safety in 7- and 28-day studies in rats and dogs. […] The NOAELs for this rat study were 120 mg/kg/day for males and 75 mg/kg/day for females. […] The NOAEL determined in the 28-day dog GLP study was 150 mg/kg/day. These correspond to human equivalent doses (HEDs) of: • Rat: 75 mg/kg×0.16=12 mg/kg • Dog: 150 mg/kg×0.54=81 mg/kg

Series [2] in a line: Dog pharmacokinetics, oral gavage suspension. Format: in vivo, beagle dogs. Particulars: for MRT last / half-life: dog, plasma; for MRT last / half-life / ClF: male beagle dogs, oral suspension, mean. The method, then:
In a follow-up study, the pharmacokinetics of tris salt Compound 1 were investigated via oral gavage of a 0.5% methylcellulose in saline formulation. Two Groups of animals were tested. In Group 1, three male beagle dogs were administered a single dose of 3 mg/kg Compound 1 tris salt. In Group 2, three male beagle dogs were administered a single dose of 30 mg/kg Compound 1 tris salt. Plasma was collected pre-dose, and at 0.5, 1, 2, 4, 8, 12 and 24 hours post-dose via puncture of peripheral veins.
(§3) LC MS-MS Analysis. Liquid Chromatography with tandem mass spectrometry was used to determine plasma concentrations of Compound 1 Free Acid and Compound 1 Tris Salt in plasma samples collected at prescribed time points. Instrumentation included YMC-Triart C18, S-5 μm (50×2.1 mm) HPLC column, liquid chromatograph Shimadzu LC-30AD with communications bus module CBM-20A and Auto SIL-20AC HT; and a Triple Quad 5500 LC/MS/MS instrument. Tolbutamide was used as an internal standard.

The nature of series [3]: Dog pharmacokinetics, powder in capsule. Type of series: in vivo, beagle dogs. On the procedure:
Groups, Dosing, and Collection. The pharmacokinetics of the free acid and the tris salt of Compound 1 administered by oral capsules was assessed in dogs. Three male beagle dogs were administered a single dose of 3 mg/kg Compound 1 free acid on Day 1 of the study, and a single dose of 3 mg/kg Compound 1 tris salt on Day 8 of the study. Plasma was collected pre-dose, and at 0.5, 1, 2, 4, 8, 12 and 24 hours post-dose via puncture of peripheral veins.
as §3

The test system of series [4] is Sprague Dawley rats. Nature of the series: Behavioral safety pharmacology study. Type of series: in vivo. Particulars: oral dose of up to 400 mg/kg, male rats (highest dose tested). On the procedure:
(§4) The safety pharmacology of Compound 1 and its tris salt was evaluated in an in vitro human ether-à-go-go related gene (hERG) assay, a behavioral study in Sprague Dawley rats, and a respiratory and cardiovascular system assessment using electrocardiogram (ECG)-telemetered beagle dogs. […] Determination of the IC50 against the hERG channel was precluded due to potential cytotoxicity at doses >300 μM. […] Cardiovascular safety pharmacology assessments noted decreases in PR interval duration that were detected up to 9 hours post administration of Compound 1 and were usually dose related and associated with potential changes in heart rate. These changes were considered biologically insignificant due to their small magnitude (up to 10 msec compared to vehicle control), association with potential increases in heart rate, and the absence of correlated findings.

For series [5], the system named is beagle dogs. The series is described as follows: Respiratory and cardiovascular assessment in ECG-telemetered dogs. Format: in vivo. The method, then: as §4
Series [6] addresses hERG channel (Homo sapiens, UniProt Q12809). Nature of the series: in vitro hERG assay. Format: cell-based. Particulars: determination precluded by potential cytotoxicity at >300 μM; read-out: half maximal inhibitory concentration (IC50) against the hERG channel. The method, then: as §4
(In general: Block of hERG is tested as a sign of cardiac risk.)

The nature of series [7]: ADME: intravenous clearance and oral bioavailability. Type of series: in vivo. From the text: The absorption, distribution, metabolism, and excretion properties of Compound 1 have been characterized in both in vitro and in vivo studies. Sensitive and selective bioanalytical methods have been developed and validated for rat and dog plasma. Following intravenous administration, the systemic clearance of Compound 1 in all species evaluated was considered low. Following oral administration, bioavailability was generally greater than 30% in the species evaluated. Initial studies utilized the Compound 1 free form. […] All Good Laboratory Practice (GLP) studies were performed using the Compound 1 tris salt form. Dose levels indicate Compound 1 free form equivalents unless otherwise noted.

For series [8], the system named is primary human lung fibroblasts. Nature of the series: Fibroblast-to-myofibroblast transition. Type of series: cell-based. From the text:
The reduction of lung fibrosis upon MCT4 inhibition is coupled with changes in serum metabolites that indicates turnover of extracellular matrix protein and increased fatty acid oxidation.

Series [9] concerns bleomycin-induced lung fibrosis. The series is described as follows: Bleomycin-induced lung fibrosis model. Type of series: in vivo, mice. On the procedure:
The reduction of lung fibrosis upon MCT4 inhibition is coupled with changes in serum metabolites that indicates turnover of extracellular matrix protein and increased fatty acid oxidation. […] The effects of Compound 1, alone or in combination with approved IPF drugs pirfenidone or nintedanib, were studied in the bleomycin-induced lung fibrosis model in therapeutic mode. Compound 1 was dosed at 3 mg/kg, BID; pirfenidone was dosed at 100 mg/kg, BID; and nintedanib was dosed at 50 mg/kg, QD, all via oral gavage.

The subject of series [10] is beagle dogs. Nature of the series: Range finding toxicity study in dogs. Type of series: in vivo. On the procedure:
as §1

For series [11], the system named is Sprague Dawley rats. Nature of the series: 28-day repeat-dose toxicity study in rats. Format: in vivo. Particulars: male, rat, in vivo, 400 mg/kg/day, 28 days. The method, then:
Compound 1 was administered to Sprague Dawley rats by oral gavage at doses of 25, 75, and 250 mg/kg/day (females) and 40, 120, and 400 mg/kg/day (males) for 28 days. Compound 1-related mortality occurred in 8 of the 15 toxicity males administered 400 mg/kg/day beginning on Day 8 through 24. […] Target tissues included bone marrow, spleen, thymus, liver, lymph nodes, epididymides, seminal vesicles, prostate, testes, uterus, and ovaries.
as §2

[12] abbreviates: male beagle dogs, powder in capsule, 3 mg/kg, mean.
Where [13] appears, read: male, beagle, dog, plasma, po, 3 mg/kg, male beagle dogs, powder in capsule, mean.

One may read the MRT last as a mean duration of stay, worked out from the concentration-time curve. One may read the half-life as the time needed for the level to fall by half in the phase considered. A high value points to slow decline. As a reminder, the bioavailability is dose-corrected exposure relative to a reference, in per cent. Higher therefore signals much systemic uptake.

Chain of hERG channel (Q12809 whole entry): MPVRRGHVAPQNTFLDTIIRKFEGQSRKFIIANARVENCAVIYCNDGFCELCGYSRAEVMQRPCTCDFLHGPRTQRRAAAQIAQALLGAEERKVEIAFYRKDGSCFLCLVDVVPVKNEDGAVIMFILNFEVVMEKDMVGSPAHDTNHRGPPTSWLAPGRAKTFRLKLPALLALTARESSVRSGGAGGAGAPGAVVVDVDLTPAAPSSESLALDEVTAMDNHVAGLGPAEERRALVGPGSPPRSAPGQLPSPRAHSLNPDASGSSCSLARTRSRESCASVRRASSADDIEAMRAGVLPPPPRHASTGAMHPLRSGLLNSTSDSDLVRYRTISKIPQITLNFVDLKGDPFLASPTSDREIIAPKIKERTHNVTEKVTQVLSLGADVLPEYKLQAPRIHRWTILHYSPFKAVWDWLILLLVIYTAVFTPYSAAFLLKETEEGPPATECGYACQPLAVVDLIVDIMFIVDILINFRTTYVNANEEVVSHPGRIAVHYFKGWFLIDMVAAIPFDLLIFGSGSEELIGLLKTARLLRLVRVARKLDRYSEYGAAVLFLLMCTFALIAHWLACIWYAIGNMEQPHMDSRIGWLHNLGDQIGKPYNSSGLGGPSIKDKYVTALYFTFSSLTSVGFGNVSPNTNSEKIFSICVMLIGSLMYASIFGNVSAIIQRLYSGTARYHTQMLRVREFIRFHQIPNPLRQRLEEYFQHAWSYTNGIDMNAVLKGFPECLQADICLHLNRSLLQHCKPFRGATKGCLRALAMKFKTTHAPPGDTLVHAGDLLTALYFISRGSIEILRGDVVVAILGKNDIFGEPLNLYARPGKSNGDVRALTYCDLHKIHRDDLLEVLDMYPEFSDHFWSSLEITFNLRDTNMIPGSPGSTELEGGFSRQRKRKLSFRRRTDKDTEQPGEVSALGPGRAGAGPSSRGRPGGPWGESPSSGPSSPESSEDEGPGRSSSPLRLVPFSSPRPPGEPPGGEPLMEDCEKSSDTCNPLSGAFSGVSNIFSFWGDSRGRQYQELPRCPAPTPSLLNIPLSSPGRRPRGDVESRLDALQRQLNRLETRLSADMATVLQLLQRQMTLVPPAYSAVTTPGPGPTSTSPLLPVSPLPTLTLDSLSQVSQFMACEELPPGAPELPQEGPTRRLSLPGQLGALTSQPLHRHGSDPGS

Consider `CC(C)(OCc1cc(-c2cccc(OC3CCC3)c2)n(-c2ccccc2N2CCC2)n1)C(=O)O` [Compound 1 tris salt, tris salt of 2-((1-(2-(azetidin-1-yl)phenyl)-5-(3-cyclobutoxyphenyl)-1H-pyrazol-3-yl)methoxy)-2-methylpropanoic acid], for which the Adverse effects entry in [1] is listed as “no Compound 1 tris salt-related adverse effects”. In series [2] (3 mg/kg), this compound gave a mean residence time MRT last of 2.34 h, a half-life of 4.74 h and a ClF of 602. In [2] (30 mg/kg), this compound had an MRT last of 3.81 h, a half-life of 3.69 h and a ClF of 547. Moreover, the Clinical symptoms entry in series [2] (dogs, single 3 or 30 mg/kg oral gavage dose) is “No abnormal clinical symptoms were observed”. Further, in series [3] (dogs), the “Half-life compared to free acid” value is reported as “lower” and the “Mean residence time compared to free acid” value is given as “increased”. Also, the “Total drug exposure across time (AUClast and AUCInf) compared to free acid” value in [3] (dogs, powder in capsule and suspension formulations) is “higher”. In [3] (setting [12]), this compound returned a ClF of 756, an MRTlast of 7.89 h and a T1/2 of 3.63 h.

For the compound `CC(C)(OCc1cc(-c2cccc(OC3CCC3)c2)n(-c2ccccc2N2CCC2)n1)C(=O)O` [Compound 1, 2-((1-(2-(azetidin-1-yl)phenyl)-5-(3-cyclobutoxyphenyl)-1H-pyrazol-3-yl)methoxy)-2-methylpropanoic acid], the Behavioral effects entry in series [4] is listed as “no Compound 1-related behavioral effects”. Besides, the “Time post administration at which decreases in PR interval duration were detected” value in series [5] (dogs) is reported as “up to 9 hours”. Also, in series [5] (dogs, compared to vehicle control), the “Decrease in PR interval duration, magnitude” value is given as “up to 10 msec”. The Respiratory effects entry in series [5] (oral dose of up to 150 mg/kg, dogs (highest dose tested)) is “no significant respiratory effects”. Further, in [6], the pIC50 was under 3.52. Also, in series [7] (intravenous administration, all species evaluated), the Systemic clearance entry is “low”. In [7] (plasma, oral administration, species evaluated), this compound showed a bioavailability of over 30%. For the same compound, in series [8], the Fibroblast-to-myofibroblast transition entry was “attenuates the fibroblast-to-myofibroblast transition” and the “Production of alpha-smooth muscle actin (αSMA)” value is “reducing the production”. The Clinical symptoms result in series [3] (dogs, single 3 mg/kg oral capsule dose) is “No abnormal clinical symptoms were observed”. Also, in [3] (male beagle dogs, powder in capsule, 3 mg/kg, mean, listed as Free Acid), the ClF was 2505. For the same compound, in series [3] (setting [13]), the mean residence time (MRT last) is 5.39 h and the half-life is 6.33 h. In series [9] (aged (>60 week) mice), the Lung fibrosis entry is on record as “reduced lung fibrosis” and the Lung lactate levels entry was “reduction in lung lactate levels”. In addition, the Lung fibrosis result in [9] (bleomycin-induced mouse model of IPF) is given as “reduces lung fibrosis”. The Minimal efficacious dose in series [9] (twice daily (BID), bleomycin-induced mouse model of IPF) came out at 3 mg/kg. In addition, the “Dose at which decreased thymus weights were observed” value in series [10] (dogs) is reported as at least 240 mg/kg. In addition, the Clinical observations entry in series [10] (dogs, oral gavage 30, 79, 240, or 790 mg/kg, all dose levels) was “Watery feces and emesis were occasionally observed”. Further, in [10] (male dogs, 790 mg/kg), the Electrolyte changes result was “increased potassium and decreased sodium and chloride”. For the same compound, the Compound-related mortality in series [11] is given as 8 of the 15.
